Results on four molecules are retold here after paper PMC8398255, “Synthesis of 3,5-Bis(trifluoromethyl)phenyl-Substituted Pyrazole Derivatives as Potent Growth Inhibitors of Drug-Resistant Bacteria” (Molecules, 2021).

In brackets after ≈: the same amount, converted by molar mass. Like-named read-outs stand apart in the source and are kept apart here.

Series [1] has as its system MRSA (S. aureus ATCC 700699). Kind of series: Time Kill Assay. Particulars: 4× MIC, positive controls. The class given is cell-based, Staphylococcus aureus.
Series [2] concerns S. aureus ATCC 700699 (Sa99). Kind of series: MIC, microdilution (CLSI). The conditions noted are these: Staphylococcus aureus, ATCC700699. It counts as cell-based. Summed up:
(§1)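 Starting from 32 µg/mL in DMSO, each compound was diluted two-fold in CAMHB; culture was then added and plates held at 35 ℃ for 18–20 h. Inhibition was judged by absence of visible turbidity.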
(Broth dilution looks for growth in wells or tubes with falling amounts of substance.)

Series [3] relates to E. faecalis ATCC 29212 (Ef12). Nature of the series: MIC, microdilution (CLSI). It counts as cell-based. Particulars: Enterococcus faecalis, ATCC29212. In a few lines: as §1
Series [4] has as its system S. aureus ATCC 33592 (Sa92). Nature of the series: MIC, microdilution (CLSI). It counts as cell-based. Particulars: Staphylococcus aureus, ATCC33592. Summed up: as §1
The test system of series [5] is E. faecium ATCC 700221 (Ef21). Nature of the series: MIC, microdilution (CLSI). It counts as cell-based. Particulars: Enterococcus faecium, ATCC 700221 / VRE. Summed up:
as §1

Series [6] has as its system S. aureus ATCC 33591 (Sa91). Nature of the series: MIC, microdilution (CLSI). It counts as cell-based. Particulars: Staphylococcus aureus, ATCC33591. In a few lines: as §1
Series [7] has as its system Bacillus subtilis ATCC 6623 (Bs). Kind of series: MIC, microdilution (CLSI). Particulars: ATCC6623. The class given is cell-based. Summed up: as §1
The subject of series [8] is S. aureus ATCC 25923 (Sa23). Kind of series: MIC, microdilution (CLSI). The class given is cell-based. The conditions noted are these: Staphylococcus aureus, ATCC25923. In a few lines:
as §1

The test system of series [9] is S. epidermidis ATCC 700296 (Se). Kind of series: MIC, microdilution (CLSI). The class given is cell-based. The conditions noted are these: Staphylococcus epidermidis, ATCC700296. In a few lines: as §1
Series [10] concerns E. faecalis ATCC 51299 (Ef99). Nature of the series: MIC, microdilution (CLSI). The class given is cell-based. The conditions noted are these: Enterococcus faecalis, ATCC 51299 / VRE. In a few lines:
as §1

Series [11] has as its system S. aureus BAA-2312 (Sa12). Kind of series: MIC, microdilution (CLSI). The class given is cell-based. The conditions noted are these: Staphylococcus aureus, BAA2312. Summed up:
as §1

Series [12] has as its system S. aureus ATCC 700699 persisters. Kind of series: Persister viability assay. The class given is cell-based, Staphylococcus aureus. The conditions noted are these: 32× MIC, 4 h, S. aureus ATCC 700699 persisters. The method, then:
The persister assay was performed following the methodology described previously. Briefly, for persister viability assays, S. aureus ATCC 700699 strain (MRSA) was grown to stationary phase in CAMHB medium by shaking at 200 rpm in a shaking incubator for 24 h at 35 °C. […] After incubation, 400 µL aliquot was washed, serially diluted in PBS, and plated in blood agar plate for viable colony count.

The subject of series [13] is S. aureus biofilms (Sa23). Kind of series: Biofilm eradication (MBEC), Calgary Biofilm Device. It counts as cell-based, Staphylococcus aureus. On the procedure: (§2) Minimum biofilm eradication concentration (MBEC) was determined using a Calgary device using the protocol reported elsewhere with some modifications. The Calgary device is a 96-well plate with a lid containing pegs to establish biofilms. Bacteria from an overnight plate culture were suspended to a 0.5 McFarland turbidity, then diluted 1:100 in a CAMHB containing 1% glucose which was inoculated in the 96 wells (150 μL in each well) and incubated at 35 °C for 24 h to establish biofilm on the pegs. The lid was then removed, washed with PBS in a fresh 96 well plate, then transferred to another 96-well plate containing 2-fold serial dilutions of the test compounds dissolved in PBS (150 μL total volume in each well). This plate was called the “challenge plate”. The challenge plate was incubated for an additional 24 h, and the lid was transferred to the next 96-well plate containing fresh CAMHB media with 1% glucose (180 μL) and further incubated for 24 h. […] All the compounds were tested in a minimum of three independent experiments.

Series [14] relates to E. faecalis biofilms (Efs12). Nature of the series: Biofilm eradication (MBEC), Calgary Biofilm Device. The class given is cell-based. The method, then: as §2
The subject of series [15] is enterococci strains. Kind of series: MIC against enterococci strains. It counts as cell-based. The conditions noted are these: tested enterococci strains. On the procedure:
(§3) Compounds were dissolved in dimethyl sulfoxide (DMSO) to achieve a starting concentration of 32 µg/mL as described by us previously. Compounds were further diluted two-fold across the 96-well honeycomb plate columns in cation adjusted Mueller Hinton broth (CAMHB), and bacterial culture was added. Plates were incubated for 18–20 h at 35 ℃ before determining the minimum concentrations at which wells had no visible turbidity to the naked eye. The MIC values were determined from at least a duplicate result obtained from three independent experiments using fresh bacterial cultures on different days.

Series [16] relates to S. aureus strains. Kind of series: MIC against S. aureus strains. The class given is cell-based, Staphylococcus aureus. The method, then:
as §3

The test system of series [17] is S. aureus and E. faecalis biofilms. Nature of the series: Biofilm eradication, S. aureus and E. faecalis. The class given is cell-based. On the procedure: as §2
In series [18] the test system is Gram-positive bacteria. Nature of the series: MIC across the tested strains. It counts as cell-based. Particulars: against several bacterial strains. The method, then: as §3
Series [19] can be described thus: Cytotoxicity assay (resazurin). The class given is cell-based. Particulars: human, HEK-293 cells, 24 h treatment, n = 3. On the procedure:
The human embryonic kidney cell line (HEK-293) was used to assess the cytotoxicity of the antibiotics as described by us previously. HEK-293 cells were cultured in Dulbecco’s modified eagle’s medium (DMEM) containing 10% Fetal Bovine Serum (FBS) and incubated at 37 °C in the presence of 5% carbon dioxide. HEK-293 cells were cultured in 96-well black plates with 6000 cells per well for the first 24 h followed by treatment with a range of concentrations of antibiotics dissolved in DMSO for the next 24 h. After the second period of incubation, resazurin (40 µL of 0.15 mg/mL) was added to each well and incubated for an additional 4 h. Reduction of resazurin was measured fluorometrically with excitation wavelength at 560 nm and emission at 590 nm using BioTek™ Cytation™5 plate reader. Percentage viability of HEK cells for each range of concentrations was calculated, taking the fluorescence value of the wells treated with DMSO as a reference, using Microsoft® Excel® for Office 365 MSO. IC50 values were computed using the calculated percentage viability values through data processing in Graphpad Prism 7 for Windows, Version 7.04.
(In general: Alamar Blue is a resazurin reagent that responds to reducing activity.)

The mark [20] stands for this setting: Sa99, methicillin-resistant S. aureus ATCC 700699, n = 3, read-out: MIC.
[21] abbreviates: Ef12, antibiotic susceptible E. faecalis ATCC 29212, n = 3, read-out: MIC.
The mark [22] stands for this setting: Sa92, methicillin-resistant S. aureus ATCC 33592, n = 3, read-out: MIC.
Where [23] appears, read: Ef21, vancomycin-resistant (VRE) E. faecium ATCC 700221, n = 3, read-out: MIC.
The mark [24] stands for this setting: Sa91, methicillin-resistant S. aureus ATCC 33591, n = 3, read-out: MIC.
The mark [25] stands for this setting: Bs, Bacillus subtilis ATCC 6623, n = 3, read-out: MIC.
Where [26] appears, read: Sa23, antibiotic susceptible S. aureus ATCC 25923, n = 3, read-out: MIC.
[27] abbreviates: Se, S. epidermidis ATCC 700296, n = 3, read-out: MIC.
[28] abbreviates: Ef99, vancomycin-resistant (VRE) E. faecalis ATCC 51299, n = 3, read-out: MIC.
Where [29] appears, read: Sa12, methicillin-resistant S. aureus BAA-2312, n = 3, read-out: MIC.

In general, MIC refers to the lowest concentration found to suppress growth. Take `CCCCCCCCCC(=O)N[C@@H](Cc1c[nH]c2ccccc12)C(=O)N[C@H](CC(N)=O)C(=O)N[C@@H](CC(=O)O)C(=O)N[C@@H]1C(=O)NCC(=O)N[C@@H](CCCN)C(=O)N[C@@H](CC(=O)O)C(=O)N[C@H](C)C(=O)N[C@@H](CC(=O)O)C(=O)NCC(=O)N[C@H](CO)C(=O)N[C@@H]([C@H](C)CC(=O)O)C(=O)N[C@@H](CC(=O)c2ccccc2N)C(=O)O[C@@H]1C` [D, Daptomycin, reference compound]: in series [1], the “time to eliminate >99.9% CFUs” value turned out to be 6 h. The MIC in series [2] (setting [20]) was 8 µg/mL (≈ 4.94 µM); in series [3] (setting [21]), 16 µg/mL (≈ 9.87 µM); in series [4] (setting [22]) it was 2 µg/mL (≈ 1.23 µM); in series [5] (setting [23]), 16 µg/mL (≈ 9.87 µM); in [6] (setting [24]), 2 µg/mL (≈ 1.23 µM); in series [7] (setting [25]), 2 µg/mL (≈ 1.23 µM). The minimum inhibitory concentration (MIC) is 2 µg/mL (≈ 1.23 µM) in series [8] (setting [26]), 2 µg/mL (≈ 1.23 µM) in series [9] (setting [27]), 16 µg/mL (≈ 9.87 µM) in [10] (setting [28]) and 2 µg/mL (≈ 1.23 µM) in [11] (setting [29]). Also, in series [12], the “activity against persisters” value is recorded as “failed to demonstrate persister kill activity”. Also, the MBEC in series [13] and in series [14] was more than 32 µg/mL in each case.
Take `CN[C@H](CC(C)C)C(=O)N[C@H]1C(=O)N[C@@H](CC(N)=O)C(=O)N[C@H]2C(=O)N[C@H]3C(=O)N[C@H](C(=O)N[C@H](C(=O)O)c4cc(O)cc(O)c4-c4cc3ccc4O)[C@H](O)c3ccc(c(Cl)c3)Oc3cc2cc(c3O[C@@H]2O[C@H](CO)[C@@H](O)[C@H](O)[C@H]2O[C@H]2C[C@](C)(N)[C@H](O)[C@H](C)O2)Oc2ccc(cc2Cl)[C@H]1O` [V, Vancomycin, reference compound]: the “time to eliminate >99.9% CFUs” value in series [1] was 8 h. Besides, the minimal inhibitory concentration (MIC) was 4 µg/mL (≈ 2.76 µM) in series [2]; 2 µg/mL (≈ 1.38 µM) in series [3]; 2 µg/mL (≈ 1.38 µM) in [4]; more than 32 µg/mL in [5]; 2 µg/mL (≈ 1.38 µM) in series [6]; 0.25 µg/mL (≈ 0.173 µM) in series [7] (Bacillus subtilis). The MIC in [8] was 1 µg/mL (≈ 0.69 µM); in series [9], 2 µg/mL (≈ 1.38 µM); in series [10], more than 32 µg/mL; in series [11], 0.5 µg/mL (≈ 0.345 µM). The “activity against persisters” value in series [12] is listed as “failed to demonstrate persister kill activity”. The MBEC in series [13] and in series [14] was more than 32 µg/mL each time.
For the molecule `O=C(O)c1ccc(-n2cc(CNc3ccc(Br)c(Cl)c3)c(-c3cc(C(F)(F)F)cc(C(F)(F)F)c3)n2)cc1` [Compound 21, 4-[3-[3,5-Bis(trifluoromethyl)phenyl]-4-[(4-bromo-3-chloro-anilino)methyl]pyrazol-1-yl] benzoic acid], the MIC came to 2 µg/mL (≈ 3.23 µM) in series [2] (setting [20]); 1 µg/mL (≈ 1.62 µM) in series [3] (setting [21]); 0.5 µg/mL (≈ 0.808 µM) in series [4] (setting [22]); 1 µg/mL (≈ 1.62 µM) in series [5] (setting [23]); 0.5 µg/mL (≈ 0.808 µM) in [6] (setting [24]); 1 µg/mL (≈ 1.62 µM) in series [7] (setting [25]). Also, the MIC in series [8] (setting [26]) is 1 µg/mL (≈ 1.62 µM); in series [9] (setting [27]), 2 µg/mL (≈ 3.23 µM); in series [10] (setting [28]) it was 1 µg/mL (≈ 1.62 µM); in series [11] (setting [29]) it was 1 µg/mL (≈ 1.62 µM); in [15], 1 µg/mL (≈ 1.62 µM); in series [16] (Staphylococcus aureus, S. aureus strains, including MRSA) it was not below 0.5 µg/mL. The “times more effective than vancomycin and daptomycin” value in [16] (against S. aureus strains) is reported as “up to 4 times”.
A word on the IC50: it is the midpoint of a concentration-inhibition curve. With `O=C(O)c1ccc(-n2cc(CNc3ccc(Oc4ccccc4)cc3)c(-c3cc(C(F)(F)F)cc(C(F)(F)F)c3)n2)cc1` [Compound 5, 4-[3-[3,5-Bis(trifluoromethyl)phenyl]-4-[(4-phenoxyanilino)methyl]pyrazol-1-yl] benzoic acid], the “biofilm eradication property” value in series [17] is given as “did not show any appreciable biofilm eradication property”. Besides, the MIC is 2 µg/mL (≈ 3.35 µM) in series [2] (setting [20]); 2 µg/mL (≈ 3.35 µM) in series [3] (setting [21]); 1 µg/mL (≈ 1.67 µM) in [4] (setting [22]); 1 µg/mL (≈ 1.67 µM) in series [5] (setting [23]); 1 µg/mL (≈ 1.67 µM) in series [6] (setting [24]); 2 µg/mL (≈ 3.35 µM) in series [7] (setting [25]). In addition, the MIC in [8] (setting [26]) was determined as 1 µg/mL (≈ 1.67 µM); in series [9] (setting [27]) it was 4 µg/mL (≈ 6.69 µM); in series [10] (setting [28]), 1 µg/mL (≈ 1.67 µM); in [11] (setting [29]), 2 µg/mL (≈ 3.35 µM); in series [18], 1 µg/mL (≈ 1.67 µM). Further, in series [12], the “activity against persisters” value is reported as “partial activity”. The MBEC in series [13] and in [14] was more than 32 µg/mL throughout. In addition, in series [19], the 50% inhibitory concentration (IC50) at 24 h was determined as 9.15 µg/mL (≈ 15.3 µM).
